The record followed here is PubChem BioAssay (NCI).

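Where inhibition never reached the appropriate level, the endpoint shown equals the highest concentration tested. Otherwise, values were interpolated linearly from a five-concentration, 48-hour dose response in 96-well plates. At the GI50, growth is halved. TGI denotes the concentration required for complete inhibition of growth.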

Among the test systems are UACC-62 melanoma; TK-10 renal; HL-60(TB) leukemia; K-562 leukemia; NCI-H522 lung; SNB-19 CNS; HCT-15 colon; HCC-2998 colon; ACHN renal; UO-31 renal.
Assay in all cases: NCI tumour cell line growth inhibition, 48 h

Take `Cn1c(Sc2ccc(-c3cccnc3)n2C)ccc1-c1cccnc1`: the TGI in the experiment on UACC-62 melanoma amounted to 29.7 µM; in the experiment with TK-10 renal it was 32.4 µM; in the experiment with HL-60(TB) leukemia, 5.78 µM; in the experiment on K-562 leukemia it was 13.8 µM; in the experiment with NCI-H522 lung, 23.9 µM; with SNB-19 CNS, 42.3 µM. In addition, the TGI in the experiment with HCT-15 colon stood at 35.6 µM; in the experiment with HCC-2998 colon it was 34.7 µM; with ACHN renal, 44.9 µM; in the experiment with UO-31 renal, 33.4 µM.

With `NNc1ccccc1Cl`, the TGI in the experiment on UACC-62 melanoma, in the experiment with TK-10 renal, with HL-60(TB) leukemia, with K-562 leukemia, in the experiment with NCI-H522 lung and in the experiment with SNB-19 CNS was greater than 100 µM each time. Besides, the TGI with HCT-15 colon, in the experiment on HCC-2998 colon, in the experiment on ACHN renal and with UO-31 renal was greater than 100 µM in each case.

As for `Nc1nnc(N)n1NC(=O)C(=O)Nc1ccc([N+](=O)[O-])cc1`, the TGI in the experiment with UACC-62 melanoma, in the experiment with TK-10 renal, in the experiment on HL-60(TB) leukemia, in the experiment on K-562 leukemia, with NCI-H522 lung and with SNB-19 CNS was greater than 100 µM in each case. The TGI in the experiment with HCT-15 colon, with HCC-2998 colon, in the experiment on ACHN renal and in the experiment on UO-31 renal was greater than 100 µM throughout.

In the case of `COc1cc(S(=O)(=O)Nc2nc(-c3ccc(N)cc3)cs2)ccc1Cl`, the TGI in the experiment on UACC-62 melanoma, in the experiment with TK-10 renal, with HL-60(TB) leukemia, in the experiment with K-562 leukemia, with NCI-H522 lung and in the experiment with SNB-19 CNS was greater than 100 µM each time. For the same compound, the TGI in the experiment with HCT-15 colon, in the experiment on ACHN renal and in the experiment on UO-31 renal was greater than 100 µM in each case.

For `COc1cc(O)c2c(c1)C(=O)c1cc(C)cc(O)c1C2=O`, the TGI in the experiment on UACC-62 melanoma, in the experiment with HL-60(TB) leukemia, in the experiment on K-562 leukemia, in the experiment with NCI-H522 lung, with SNB-19 CNS and with HCC-2998 colon was greater than 100 µM each time. Also, the TGI in the experiment on ACHN renal and with UO-31 renal was greater than 100 µM each time.

As to `Cc1cc(=O)oc2c1cc(OCC(=O)OCCN1CCCCC1)c1occ(C)c12`, the TGI in the experiment with UACC-62 melanoma, in the experiment on TK-10 renal, in the experiment on HL-60(TB) leukemia, in the experiment on K-562 leukemia, in the experiment with SNB-19 CNS and in the experiment with HCT-15 colon was greater than 100 µM in each case. In addition, the TGI in the experiment with HCC-2998 colon, in the experiment with ACHN renal and in the experiment on UO-31 renal was greater than 100 µM throughout.

As for `CO[C@@H]1C=C[C@@]23c4cc5c(cc4C(O)N(CC2O)C3C1)OCO5` (stereo partly drawn), the TGI in the experiment on UACC-62 melanoma was 20.4 µM; with TK-10 renal it was 23 µM; in the experiment on HL-60(TB) leukemia, 5.64 µM; in the experiment on K-562 leukemia it was greater than 100 µM; in the experiment on NCI-H522 lung it was greater than 100 µM; in the experiment on SNB-19 CNS, 33.8 µM. The TGI with HCT-15 colon stood at 39.3 µM; in the experiment with ACHN renal, 18.6 µM; in the experiment on UO-31 renal, 36.8 µM.

On to `COc1ccc(CC2c3cc(OC)c(OC)c(OC)c3CC[N+]2(C)C)cc1Oc1ccc(CC2c3cc4c(c(OC)c3CCN2C)OCO4)cc1` (stereo not drawn), for which the TGI is greater than 100 µM in the experiment with UACC-62 melanoma; greater than 100 µM in the experiment with TK-10 renal; 89.7 µM with HL-60(TB) leukemia; greater than 100 µM with K-562 leukemia; greater than 100 µM in the experiment on NCI-H522 lung; greater than 100 µM in the experiment with SNB-19 CNS. In addition, the TGI with HCT-15 colon, with HCC-2998 colon, in the experiment on ACHN renal and in the experiment with UO-31 renal was greater than 100 µM in each case.

For `CC(C)=CCC[C@](C)(O[C@@H]1O[C@H](CO)[C@@H](O)[C@H](O)[C@H]1O)[C@H]1CC[C@]2(C)[C@@H]1[C@H](O)C[C@@H]1[C@@]3(C)CC[C@H](O)C(C)(C)[C@@H]3[C@@H](O[C@@H]3O[C@H](CO)[C@@H](O)[C@H](O)[C@H]3O)C[C@]12C`, the TGI in the experiment on UACC-62 melanoma, in the experiment on TK-10 renal, in the experiment on HL-60(TB) leukemia, in the experiment with K-562 leukemia, with NCI-H522 lung and in the experiment on SNB-19 CNS was greater than 100 µM throughout. For the same compound, the TGI in the experiment on HCT-15 colon, with HCC-2998 colon, in the experiment with ACHN renal and in the experiment on UO-31 renal was greater than 100 µM in each case.

As for `O=C1C[C@@H](Sc2ccccc2)C2(OCCO2)[C@H]2ON3CCC[C@@H]3[C@@H]12`, the TGI in the experiment on UACC-62 melanoma is 24.3 µM; in the experiment with TK-10 renal it was 19.3 µM; with HL-60(TB) leukemia, 6.08 µM; with K-562 leukemia, 13.8 µM; with SNB-19 CNS it was 29 µM; in the experiment on HCT-15 colon, 9.7 µM. For the same compound, the TGI in the experiment on HCC-2998 colon turned out to be 20.8 µM; with ACHN renal, 15.2 µM; in the experiment on UO-31 renal, 4.12 µM.

In the case of `Fc1ccc(-c2nnc3sc(COc4ccccc4Cl)nn23)cc1Cl`, the GI50 in the experiment on UACC-62 melanoma was 38.4 µM; with TK-10 renal, greater than 100 µM; with HL-60(TB) leukemia, 30.4 µM; in the experiment with K-562 leukemia it was 24.6 µM; in the experiment with NCI-H522 lung it was 18 µM; in the experiment with SNB-19 CNS it was 39.9 µM. The GI50 in the experiment with HCT-15 colon was 17.7 µM; in the experiment on HCC-2998 colon it was greater than 100 µM; in the experiment on ACHN renal, 32.7 µM; in the experiment on UO-31 renal, 32.7 µM. The TGI in the experiment with UACC-62 melanoma is greater than 100 µM; in the experiment with TK-10 renal it was greater than 100 µM; in the experiment with HL-60(TB) leukemia, greater than 100 µM; with K-562 leukemia, 67.6 µM; with NCI-H522 lung it was 36.3 µM; in the experiment with SNB-19 CNS, greater than 100 µM. Further, the TGI is 48.7 µM in the experiment on HCT-15 colon, greater than 100 µM with HCC-2998 colon, greater than 100 µM with ACHN renal and greater than 100 µM with UO-31 renal.

For the compound `O=C(O)C1=NNC(C(=O)O)=NN1`, the TGI in the experiment on UACC-62 melanoma, in the experiment on TK-10 renal, in the experiment with HL-60(TB) leukemia, with K-562 leukemia, in the experiment on NCI-H522 lung and with SNB-19 CNS was greater than 100 µM in each case. Also, the TGI with HCT-15 colon, in the experiment on ACHN renal and in the experiment with UO-31 renal was greater than 100 µM throughout.
